Patent US20240083857A1, “2-Methyl-Quinazolines” (Bayer Pharma Aktiengesellschaft, priority 2017, published 2024)
Read-outs that look alike come from different tables or passages of the source.

Experiments:
[1] = target: Epidermal Growth Factor Receptor (EGFR) (Homo sapiens (Human), UniProt P00533); assay: EGFR kinase assay (TR-FRET); assay type: biochemical
Description: EGFR inhibitory activity of compounds of the present invention was quantified employing the TR-FRET based EGFR assay as described in the following paragraphs.
Epidermal Growth Factor Receptor (EGFR) affinity purified from human carcinoma A431 cells (Sigma-Aldrich, #E3641) was used as kinase. As substrate for the kinase reaction the biotinylated peptide biotin-Ahx-[…] (SEQ ID NO 5) (C-terminus in amid form) was used which can be purchased e.g. form the company Biosyntan GmbH (Berlin-Buch, Germany).
For the assay 50 nL of a 100 fold concentrated solution of the test compound in DMSO was pipetted into a black low volume 384 well microtiter plate (Greiner Bio-One, Frickenhausen, Germany), 2 μL of a solution of EGFR in aqueous assay buffer [50 mM Hepes/HCl pH 7.0, 1 mM MgCl2, 5 mM MnCl2, 0.5 mM activated sodium ortho-vanadate, 0.005% (v/v) Tween-20]were added and the mixture was incubated for 15 min at 22° C. to allow pre-binding of the test compounds to the enzyme before the start of the kinase reaction. […] The concentration of EGFR was adjusted depending of the activity of the enzyme lot and was chosen appropriate to have the assay in the linear range, typical concentration were about 3 U/ml. The reaction was stopped by the addition of 5 μl of a solution of HTRF detection reagents (0.1 μM streptavidine-XL665 [Cis Biointernational] and 1 nM PT66-Tb-Cryptate, an terbium-cryptate labelled anti-phospho-tyrosine antibody from Cis Biointernational [instead of the PT66-Tb-cryptate PT66-Eu-Chelate from Perkin Elmer can also be used]) in an aqueous EDTA-solution (80 mM EDTA, 0.2% (w/v) bovine serum albumin in 50 mM HEPES pH 7.5).
The resulting mixture was incubated 1 h at 22° C. to allow the binding of the biotinylated phosphorylated peptide to the streptavidine-XL665 and the PT66-Eu-Chelate. Subsequently the amount of phosphorylated substrate was evaluated by measurement of the resonance energy transfer from the PT66-Tb-Cryptate to the streptavidine-XL665. Therefore, the fluorescence emissions at 620 nm and 665 nm after excitation at 337 nm were measured in a HTRF reader, e.g. a Pherastar (BMG Labtechnologies, Offenburg, Germany) or a Viewlux (Perkin-Elmer). The ratio of the emissions at 665 nm and at […] was taken as the measure for the amount of phosphorylated substrate.

[2] = target: K-Ras^G12C : hSOS1 interaction (Homo sapiens, UniProt Q07889); assay: Biochemical assay 1: K-Ras^G12C interaction assay with hSOS1 (HTRF); assay type: binding
[3] = target: human SOS1 (loading of human K-Ras^G12C-GDP with fluorescent GTP-analog) (Homo sapiens, UniProt Q07889); assay: Biochemical assay 3: K-Ras^G12C activation assay by hSOS1 (HTRF)
[4] = target: human SOS1 (nucleotide exchange of K-Ras^G12C) (Homo sapiens, UniProt Q07889); assay: Biochemical assay 2: K-Ras^G12C activation assay by hSOS1 at high GTP concentration (HTRF)
[5] = values given in μM, read-out: EGFR kinase inhibition IC50
[6] = read-out: Assay 1 (KRAS-SOS Interaction) activity expressed as IC50
[7] = no GTP, read-out: Assay 3 (KRAS-Activation by SOS no GTP) activity expressed as IC50
[8] = in μM, read-out: EGFR-assay IC50
[9] = E-notation values, unit inferred, 50 μM GTP, read-out: Assay 2 (KRAS-Activation, high GTP) IC50
[10] = E-notation values, unit inferred, read-out: EGFR-assay IC50
[11] = E-notation values, unit inferred, read-out: Assay 3 (KRAS-Activation) IC50

Epidermal Growth Factor Receptor (EGFR), sequence (P00533 25-1210): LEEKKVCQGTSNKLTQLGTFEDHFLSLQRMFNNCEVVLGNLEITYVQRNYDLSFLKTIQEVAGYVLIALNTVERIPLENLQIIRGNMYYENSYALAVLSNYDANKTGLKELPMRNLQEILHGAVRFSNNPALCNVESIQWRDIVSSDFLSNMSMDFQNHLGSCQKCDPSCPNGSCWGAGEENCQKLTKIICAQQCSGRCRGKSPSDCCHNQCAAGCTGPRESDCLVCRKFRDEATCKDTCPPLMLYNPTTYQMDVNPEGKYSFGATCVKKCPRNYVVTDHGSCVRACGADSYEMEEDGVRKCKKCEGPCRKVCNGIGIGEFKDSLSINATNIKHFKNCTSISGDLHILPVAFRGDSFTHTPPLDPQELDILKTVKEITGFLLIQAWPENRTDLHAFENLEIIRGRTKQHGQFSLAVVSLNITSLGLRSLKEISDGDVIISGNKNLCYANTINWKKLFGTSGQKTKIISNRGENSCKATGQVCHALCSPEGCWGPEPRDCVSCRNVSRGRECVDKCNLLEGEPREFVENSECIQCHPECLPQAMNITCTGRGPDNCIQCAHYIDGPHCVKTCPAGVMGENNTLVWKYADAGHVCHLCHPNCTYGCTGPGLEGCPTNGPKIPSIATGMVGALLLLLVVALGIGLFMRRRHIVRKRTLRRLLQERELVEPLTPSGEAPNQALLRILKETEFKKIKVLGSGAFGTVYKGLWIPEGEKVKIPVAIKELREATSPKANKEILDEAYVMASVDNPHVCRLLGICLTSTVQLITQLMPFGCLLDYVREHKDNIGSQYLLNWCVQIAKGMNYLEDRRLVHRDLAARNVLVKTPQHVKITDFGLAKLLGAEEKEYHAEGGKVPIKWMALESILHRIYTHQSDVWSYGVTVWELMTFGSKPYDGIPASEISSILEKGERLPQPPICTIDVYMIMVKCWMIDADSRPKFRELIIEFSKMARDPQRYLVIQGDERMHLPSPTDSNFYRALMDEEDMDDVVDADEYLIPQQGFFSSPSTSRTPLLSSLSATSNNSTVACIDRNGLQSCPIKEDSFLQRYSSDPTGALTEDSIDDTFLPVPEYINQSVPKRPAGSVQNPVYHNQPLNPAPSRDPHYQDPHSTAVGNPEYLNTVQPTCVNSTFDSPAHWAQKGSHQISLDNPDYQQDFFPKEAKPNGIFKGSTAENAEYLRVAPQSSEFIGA

SMILES | IC50 [1, 5] | IC50 [4, 9] | IC50 [1, 10] | IC50 [3, 11] | also measured
CNCc1ccccc1-c1csc(C(C)Nc2nc(C)nc3cc(OC)c(OC)cc23)c1 (single isomer, unassigned; enantiomer 1) [Example 326, 6,7-dimethoxy-2-methyl-N-[1-(4-{2-[(methylamino)methyl]phenyl}thiophen-2-yl)ethyl]quinazolin-4-amine, Enantiomer 1] | > 20 µM |  |  |  | 
CNCc1ccccc1-c1csc(C(C)Nc2nc(C)nc3cc(OC)c(OC)cc23)c1 (single isomer, unassigned; enantiomer 2) [Example 327, 6,7-dimethoxy-2-methyl-N-[1-(4-{2-[(methylamino)methyl]phenyl}thiophen-2-yl)ethyl]quinazolin-4-amine, Enantiomer 2] | > 20 µM |  |  |  | 
COc1cc2nc(C)nc(N[C@H](C)c3cccc4ccccc34)c2cc1OC [Example 1, 6,7-dimethoxy-2-methyl-N-[(1R)-1-(naphthalen-1-yl)ethyl]quinazolin-4-amine] | > 20 µM |  |  |  | 
COc1cc2nc(C)nc(NC(C)c3ccc(Br)o3)c2cc1OC (centres unmarked) [Example 208, N-[1-(5-bromofuran-2-yl)ethyl]-6,7-dimethoxy-2-methylquinazolin-4-amine] | > 20 µM |  |  |  | IC50 [2, 6]: 5.97 µM; inhibition at 20 µM ([3]; read-out: Assay 3 (KRAS-Activation by SOS no GTP) activity expressed as % inhibition at 20 μM, no GTP, at 20 μM): 47%
COc1cc2nc(C)nc(NC(C)c3ccc(Br)s3)c2cc1OC (centres unmarked) [Example 209, N-[1-(5-bromothiophen-2-yl)ethyl]-6,7-dimethoxy-2-methylquinazolin-4-amine] | > 20 µM |  |  |  | IC50 [2, 6]: 1.08 µM; IC50 [3, 7]: 4.95 µM
COc1cc2nc(C)nc(NC(C)c3cccc4ncccc34)c2cc1OC (centres unmarked) [Example 212, 6,7-dimethoxy-2-methyl-N-[1-(quinolin-5-yl)ethyl]quinazolin-4-amine] | > 20 µM |  |  |  | IC50 [2, 6]: 0.646 µM; IC50 [3, 7]: 2.64 µM
CNCc1ccccc1-c1csc(C(C)Nc2nc(C)nc3cc(OC)c(OC)cc23)c1 (centres unmarked) [Example 271, 6,7-dimethoxy-2-methyl-N-[1-(4-{2-[(methylamino)methyl]phenyl}thiophen-2-yl)ethyl]quinazolin-4-amine] | > 20 µM |  |  |  | 
COc1cc2nc(C)nc(N[C@H](C)c3cccc(-c4c[nH]cn4)c3)c2cc1OC [Example 342, N-{(1R)-1-[3-(1H-imidazol-4-yl)phenyl]ethyl}-6,7-dimethoxy-2-methylquinazolin-4-amine] | > 20 µM |  |  |  | IC50 ([4]; high GTP, read-out: Assay 2 (KRAS-Activation by SOS high GTP) activity expressed as IC50): 0.993 µM; IC50 [3, 7]: 1.13 µM
COc1cc2nc(C)nc(NC(C)c3ccc(-c4ccccc4-c4nnn[nH]4)s3)c2cc1OC (centres unmarked) [Example 368, 6,7-dimethoxy-2-methyl-N-[1-{5-[2-(1H-tetrazol-5-yl)phenyl]thiophen-2-yl}ethyl]-quinazolin-4-amine] |  |  |  |  | IC50 [1, 8]: > 20 µM
Cc1nc(N[C@H](C)c2cccc(Cl)c2)c2cc(C(=O)O)ccc2n1 [Example 372, 4-{[(1R)-1-(3-chlorophenyl)ethyl]amino}-2-methylquinazoline-6-carboxylic acid] |  |  |  |  | IC50 [1, 8]: > 20 µM
COc1cc2nc(C)nc(NC(C)c3ccc(-c4ccccc4C(O)CCc4ccccc4)s3)c2cc1OC (centres unmarked) [Example 375, 1-[2-(5-{1-[(6,7-dimethoxy-2-methylquinazolin-4-yl)amino]ethyl}thiophen-2-yl)phenyl]-3-phenylpropan-1-ol] |  |  |  |  | IC50 [1, 8]: > 20 µM
Cc1nc(NC(C)c2ccc(-c3ccccc3CN(C)C)s2)c2cc([N+](=O)[O-])ccc2n1 (centres unmarked) [Example 421, N-[1-(5-{2-[(dimethylamino)methyl]phenyl}thiophen-2-yl)ethyl]-2-methyl-6-nitroquinazolin-4-amine] |  | 0.222 µM | > 20 µM |  | IC50 ([2]; E-notation values, unit inferred, read-out: Assay 1 (KRAS-SOS interaction) IC50): 0.145 µM
COc1cc2nc(C)nc(NC(C)c3csc(C)n3)c2cc1OC (centres unmarked) [Example 444] |  | > 20 µM | > 20 µM | > 20 µM | 
COc1cc2nc(C)nc(NC(C)c3nc(C)cs3)c2cc1OC (centres unmarked) [Example 445, 6,7-dimethoxy-2-methyl-N-[1-(4-methyl-1,3-thiazol-2-yl)ethyl]quinazolin-4-amine] |  | > 20 µM | > 20 µM | > 20 µM | 
COc1cc2nc(C)nc(NC(C)c3ccc(-c4cc(C(=O)O)n(C)n4)s3)c2cc1OC (centres unmarked) [Example 446, 3-(5-{1-[(6,7-dimethoxy-2-methylquinazolin-4-yl)amino]ethyl}thiophen-2-yl)-1-methyl-1H-pyrazole-5-carboxylic acid] |  | > 20 µM | > 20 µM | > 20 µM | 
COc1cc2nc(C)nc(NC(C)c3ccc(-c4ccc(CNC(=O)OC(C)(C)C)s4)s3)c2cc1OC (centres unmarked) [Example 447, tert-butyl [(5′-{1-[(6,7-dimethoxy-2-methylquinazolin-4-yl)amino]ethyl}-2,2′-bithiophen-5-yl)methyl]carbamate] |  | > 20 µM | > 20 µM | > 20 µM | 
COc1cc2nc(C)nc(N[C@H](C)c3cccc(-c4cn[nH]c4)c3)c2cc1OCCS(C)(=O)=O [Example 448, 7-methoxy-2-methyl-6-[2-(methylsulfonyl)ethoxy]-N-{(1R)-1-[3-(1H-pyrazol-4-yl)phenyl]ethyl}quinazolin-4-amine] |  | > 20 µM | > 20 µM | > 20 µM | 
COc1cc2nc(C)nc(NC(C)c3ccc(-c4ccc(Cl)cc4CNC(=O)OC(C)(C)C)s3)c2cc1OC (centres unmarked) [Example 449, tert-butyl [5-chloro-2-(5-{1-[(6,7-dimethoxy-2-methylquinazolin-4-yl)amino]ethyl}thiophen-2-yl)benzyl]carbamate] |  | > 20 µM | > 20 µM | > 20 µM | 
COc1cc2nc(C)nc(NC(C)c3ccc(-c4cccc(Cl)c4CNC(=O)OC(C)(C)C)s3)c2cc1OC (centres unmarked) [Example 450, tert-butyl [2-chloro-6-(5-{1-[(6,7-dimethoxy-2-methylquinazolin-4-yl)amino]ethyl}-thiophen-2-yl)benzyl]carbamate] |  | > 20 µM | > 20 µM | > 20 µM | 
Cc1nc(N[C@H](C)c2cccc(Cl)c2)c2ccc(Br)cc2n1 [Example 451, 7-bromo-N-[(1R)-1-(3-chlorophenyl)ethyl]-2-methylquinazolin-4-amine] |  | > 20 µM | > 20 µM | > 20 µM | 
Cc1nc(NC(C)c2ccc(Br)s2)c2cc([N+](=O)[O-])ccc2n1 (centres unmarked) [Example 452, N-[1-(5-bromothiophen-2-yl)ethyl]-2-methyl-6-nitroquinazolin-4-amine] |  | > 20 µM | > 20 µM | > 20 µM | 
COC(=O)c1ccc2c(N[C@H](C)c3cccc(Cl)c3)nc(C)nc2c1 [Example 453, methyl 4-{[(1R)-1-(3-chlorophenyl)ethyl]amino}-2-methylquinazoline-7-carboxylate] |  | > 20 µM | > 20 µM | > 20 µM | 
COc1cc2ncnc(N[C@H](C)c3cccc4ccccc34)c2cc1OC [Reference compound, 6,7-dimethoxy-N-[(1R)-1-(1-naphthyl)ethyl]quinazolin-4-amine, reference compound] |  |  |  |  | IC50 ([1]; unit inferred, read-out: EGFR kinase inhibition IC50): 0.553 µM
